{"source": "ChEMBL document CHEMBL5108009", "about": "“Positron Emission Tomography (PET) Imaging Tracers for Serotonin Receptors” (J Med Chem, 2022)", "key": {"D(2) dopamine receptor [1]": {"biological_target": "T1, D(2) dopamine receptor (Rattus norvegicus, UniProt P61169)", "T1 sequence (P61169 whole entry)": "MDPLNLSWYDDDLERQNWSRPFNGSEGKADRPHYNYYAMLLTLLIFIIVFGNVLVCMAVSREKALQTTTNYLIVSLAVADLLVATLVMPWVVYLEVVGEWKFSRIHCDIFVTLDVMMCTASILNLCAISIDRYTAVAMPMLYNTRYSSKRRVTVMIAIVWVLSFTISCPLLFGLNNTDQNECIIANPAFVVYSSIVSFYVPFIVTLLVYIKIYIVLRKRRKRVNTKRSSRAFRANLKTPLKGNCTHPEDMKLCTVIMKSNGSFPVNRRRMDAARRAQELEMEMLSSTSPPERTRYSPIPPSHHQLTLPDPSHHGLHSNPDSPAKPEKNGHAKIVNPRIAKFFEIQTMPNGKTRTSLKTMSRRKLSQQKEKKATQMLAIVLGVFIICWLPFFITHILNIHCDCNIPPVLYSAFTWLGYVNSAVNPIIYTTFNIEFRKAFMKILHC", "assay": "Displacement of [3H]-spiperone from rat frontal cortex membrane homogenate D2 receptor", "type": "cell membranes"}, "[2]": {"biological_target": "T2, Alpha-1A adrenergic receptor (Rattus norvegicus, UniProt P43140)", "T2 sequence (P43140 whole entry)": "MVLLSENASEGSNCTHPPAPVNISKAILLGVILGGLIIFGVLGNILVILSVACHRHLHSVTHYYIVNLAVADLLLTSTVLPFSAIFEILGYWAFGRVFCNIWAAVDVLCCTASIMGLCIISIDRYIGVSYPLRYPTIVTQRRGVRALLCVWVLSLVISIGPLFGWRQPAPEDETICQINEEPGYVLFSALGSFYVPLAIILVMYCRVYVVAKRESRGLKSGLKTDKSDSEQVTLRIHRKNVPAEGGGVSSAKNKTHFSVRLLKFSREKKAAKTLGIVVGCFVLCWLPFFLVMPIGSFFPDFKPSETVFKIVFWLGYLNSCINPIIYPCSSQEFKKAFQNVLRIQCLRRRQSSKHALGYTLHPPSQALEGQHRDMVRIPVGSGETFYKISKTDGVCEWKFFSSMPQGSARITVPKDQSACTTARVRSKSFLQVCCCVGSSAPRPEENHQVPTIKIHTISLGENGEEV", "assay": "Displacement of [3H]-prazosin from rat whole cortex membrane homogenate alpha 1 adrenergic receptor", "type": "cell membranes"}, "[3]": {"biological_target": "T3, 5-hydroxytryptamine receptor 1A (Homo sapiens, UniProt P08908)", "T3 sequence (P08908 whole entry)": "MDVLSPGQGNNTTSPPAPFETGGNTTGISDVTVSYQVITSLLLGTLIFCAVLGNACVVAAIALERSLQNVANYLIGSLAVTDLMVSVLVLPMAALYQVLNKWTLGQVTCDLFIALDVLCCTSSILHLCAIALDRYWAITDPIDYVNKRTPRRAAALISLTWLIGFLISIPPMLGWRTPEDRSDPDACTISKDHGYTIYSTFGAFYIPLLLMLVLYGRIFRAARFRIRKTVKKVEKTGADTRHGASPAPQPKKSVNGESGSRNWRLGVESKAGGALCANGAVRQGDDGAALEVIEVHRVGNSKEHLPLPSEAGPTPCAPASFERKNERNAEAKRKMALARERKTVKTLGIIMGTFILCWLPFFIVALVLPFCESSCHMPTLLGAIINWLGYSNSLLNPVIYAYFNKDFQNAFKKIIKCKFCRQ"}, "[4]": {"assay": "Drug uptake ratio in cat brain dorsal raphe nucleus to cerebellum measured after 20 to 30 mins by camera ClearPET LYSO/LuYAP Phoswich-scanner analysis", "type": "ADME, tissue-based, Felis catus", "conditions": "time 20-30 min"}, "[5]": {"assay": "Drug uptake ratio in Sprague-Dawley rat brain cingulate cortex to cerebellum measured after 20 to 30 mins by camera ClearPET LYSO/LuYAP Phoswich-scanner analysis", "type": "ADME, tissue-based", "conditions": "time 20-30 min"}, "[6]": {"assay": "Binding affinity to rat cerebral cortex homogenate 5-HT1A receptor assessed as inhibition constant", "type": "tissue-based"}, "[7]": {"biological_target": "T3, 5-hydroxytryptamine receptor 1A", "assay": "Displacement of [3H]-8-OH-DPAT from 5HT1A receptor (unknown origin)"}, "[8]": {"biological_target": "T3, 5-hydroxytryptamine receptor 1A", "assay": "Binding affinity to 5-HT1A receptor (unknown origin) assessed as inhibition constant by scintillation spectroscopic analysis"}, "[9]": {"assay": "Ratio of drug uptake in human cortex to cerebellum assessed as increase in uptake relative to control", "type": "ADME, tissue-based"}, "D(2) dopamine receptor [10]": {"biological_target": "T1, D(2) dopamine receptor", "assay": "Binding affinity to rat brain homogenate D2 receptor assessed as dissociation constant", "type": "tissue-based"}, "[11]": {"biological_target": "Sodium-dependent serotonin transporter (Rattus norvegicus, UniProt P31652)", "sequence (P31652 whole entry)": "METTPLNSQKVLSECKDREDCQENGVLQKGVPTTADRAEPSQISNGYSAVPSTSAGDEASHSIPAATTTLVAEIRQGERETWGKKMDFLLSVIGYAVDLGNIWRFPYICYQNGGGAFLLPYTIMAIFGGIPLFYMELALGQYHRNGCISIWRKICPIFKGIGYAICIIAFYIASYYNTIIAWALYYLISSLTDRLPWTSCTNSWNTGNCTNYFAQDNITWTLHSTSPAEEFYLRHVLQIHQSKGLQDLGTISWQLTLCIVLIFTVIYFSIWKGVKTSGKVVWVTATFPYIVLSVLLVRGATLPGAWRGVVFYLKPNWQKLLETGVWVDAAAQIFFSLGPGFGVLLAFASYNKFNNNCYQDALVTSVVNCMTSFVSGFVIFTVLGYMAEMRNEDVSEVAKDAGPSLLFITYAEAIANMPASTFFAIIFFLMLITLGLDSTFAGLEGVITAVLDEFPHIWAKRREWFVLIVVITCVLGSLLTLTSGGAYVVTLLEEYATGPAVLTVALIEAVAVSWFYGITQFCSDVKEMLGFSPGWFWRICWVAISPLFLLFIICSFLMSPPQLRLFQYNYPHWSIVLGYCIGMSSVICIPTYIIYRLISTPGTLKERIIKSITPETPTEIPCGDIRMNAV", "assay": "Binding affinity to rat brain homogenate SERT receptor assessed as dissociation constant", "type": "tissue-based"}, "[12]": {"biological_target": "T4, 5-hydroxytryptamine receptor 1A (Rattus norvegicus, UniProt P19327)", "T4 sequence (P19327 whole entry)": "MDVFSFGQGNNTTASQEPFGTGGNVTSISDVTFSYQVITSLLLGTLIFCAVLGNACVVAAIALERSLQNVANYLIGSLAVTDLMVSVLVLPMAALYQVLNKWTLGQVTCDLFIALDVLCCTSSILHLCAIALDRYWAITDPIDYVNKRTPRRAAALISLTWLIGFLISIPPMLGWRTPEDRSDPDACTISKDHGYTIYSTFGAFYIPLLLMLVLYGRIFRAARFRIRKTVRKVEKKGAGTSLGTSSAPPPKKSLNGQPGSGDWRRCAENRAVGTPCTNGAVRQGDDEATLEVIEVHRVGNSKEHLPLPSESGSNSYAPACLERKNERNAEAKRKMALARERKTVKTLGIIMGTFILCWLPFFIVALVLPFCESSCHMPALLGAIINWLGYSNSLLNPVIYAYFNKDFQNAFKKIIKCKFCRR", "assay": "Binding affinity to rat brain homogenate 5-HT1A receptor assessed as dissociation constant", "type": "tissue-based"}, "[13]": {"biological_target": "Serotonin 2 (5-HT2) receptor (Homo sapiens, UniProt P41595+P28223+P28335)", "assay": "Binding affinity to 5-HT2 receptor (unknown origin) assessed as dissociation constant", "type": "protein assay"}, "[14]": {"assay": "Biodistribution in Wistar rat assessed as uptake ratio of cortex to cerebellum at 50 to 100 microCi measured after 2 hrs", "type": "ADME, organism-based", "conditions": "in vivo, dose 50-100 microCi"}, "[15]": {"assay": "Ratio of drug uptake in monkey hippocampus to cerebellum", "type": "ADME, tissue-based, Macaca mulatta", "conditions": "rhesus monkey, in vivo"}, "[16]": {"assay": "Ratio of drug uptake in monkey anterior cingulate cortex to cerebellum", "type": "ADME, tissue-based, Macaca mulatta", "conditions": "rhesus monkey, in vivo"}, "[17]": {"biological_target": "T2, Alpha-1A adrenergic receptor", "assay": "Displacement of [3H]prazosin from rat cerebral cortex alpha1 adrenergic receptor", "type": "tissue-based"}, "[18]": {"biological_target": "5-hydroxytryptamine receptor 2A (Homo sapiens, UniProt P28223)", "sequence (P28223 whole entry)": "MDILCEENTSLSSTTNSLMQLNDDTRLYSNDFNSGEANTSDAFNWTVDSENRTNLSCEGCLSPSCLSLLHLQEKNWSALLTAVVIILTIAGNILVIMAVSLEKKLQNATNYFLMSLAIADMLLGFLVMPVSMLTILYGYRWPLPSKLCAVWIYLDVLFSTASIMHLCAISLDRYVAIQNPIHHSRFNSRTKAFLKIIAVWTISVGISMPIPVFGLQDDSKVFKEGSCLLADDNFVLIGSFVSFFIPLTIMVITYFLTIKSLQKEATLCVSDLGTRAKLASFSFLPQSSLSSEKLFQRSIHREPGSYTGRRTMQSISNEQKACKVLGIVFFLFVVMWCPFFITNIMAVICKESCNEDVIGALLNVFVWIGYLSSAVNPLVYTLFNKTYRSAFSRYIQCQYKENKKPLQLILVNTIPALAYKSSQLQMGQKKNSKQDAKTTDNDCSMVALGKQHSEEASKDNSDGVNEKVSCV", "assay": "Binding affinity to human frontal cortex homogenate 5-HT2A by ketanserin assay", "type": "tissue-based"}, "D(2) dopamine receptor [19]": {"biological_target": "T1, D(2) dopamine receptor", "assay": "Displacement of [3H]-spiperone from rat striatum D2 receptor"}, "[20]": {"biological_target": "Serotonin 2 (5-HT2) receptor (Rattus norvegicus, UniProt P30994+P08909+P14842)", "assay": "Displacement of [3H]-spiperone from rat frontal cortex 5-HT2 receptor", "type": "tissue-based"}, "[21]": {"biological_target": "5-hydroxytryptamine receptor 2A (Rattus norvegicus, UniProt P14842)", "sequence (P14842 whole entry)": "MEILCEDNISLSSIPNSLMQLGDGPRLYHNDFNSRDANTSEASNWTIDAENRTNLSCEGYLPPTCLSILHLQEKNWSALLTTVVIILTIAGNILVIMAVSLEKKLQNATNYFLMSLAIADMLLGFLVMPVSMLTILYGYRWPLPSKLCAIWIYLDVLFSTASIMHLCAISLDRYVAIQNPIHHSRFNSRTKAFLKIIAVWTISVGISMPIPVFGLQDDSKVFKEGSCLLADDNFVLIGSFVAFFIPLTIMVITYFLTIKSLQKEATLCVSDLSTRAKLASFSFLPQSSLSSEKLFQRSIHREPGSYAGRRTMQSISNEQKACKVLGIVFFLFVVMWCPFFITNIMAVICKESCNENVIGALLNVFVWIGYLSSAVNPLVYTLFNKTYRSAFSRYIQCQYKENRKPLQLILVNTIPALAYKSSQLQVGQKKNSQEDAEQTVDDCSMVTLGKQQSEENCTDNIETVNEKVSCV", "assay": "Binding affinity to rat frontal cortex homogenate 5-HT2A by ketanserin assay", "type": "tissue-based"}}}
{"smiles": "CCN(CC)C(=O)[C@@H]1C=C2c3cccc4c3c(c(Br)n4C)CC2N(C)C1", "note": "(stereo partly specified)", "values": [{"measurement": "Ki", "setting": "D(2) dopamine receptor [1]", "value": 3.9, "unit": "nM"}, {"measurement": "Ki", "setting": "[2]", "value": 34, "unit": "nM"}]}
{"smiles": "Cc1cnc(CNCC2(F)CCN(C(=O)c3ccc([18F])c(Cl)c3)CC2)nc1", "values": [{"measurement": "Ki", "setting": "[3]", "value": 2.24, "unit": "nM"}, {"measurement": "Ratio", "setting": "[4]", "value": 1.5}, {"measurement": "Ratio", "setting": "[5]", "value": 1.6}]}
{"smiles": "O=S1(=O)c2cccc3cccc(c23)N1CCCN1CCN(c2ccc(F)cc2)CC1", "note": "[FANANSERIN]", "values": [{"measurement": "Ki", "setting": "[6]", "value": 70, "unit": "nM"}]}
{"smiles": "CSc1cccc(C(=O)NC[C@@H]2CCCN2CCc2ccccc2)c1", "values": [{"measurement": "Ki", "setting": "[7]", "value": 4.3, "unit": "nM"}]}
{"smiles": "CNc1nc(CNCC2(F)CCN(C(=O)c3ccc(F)c(Cl)c3)CC2)ccc1C", "values": [{"measurement": "Ki", "setting": "[8]", "value": 0.04, "unit": "nM"}]}
{"smiles": "[2H]C([2H])(Cn1c(=S)[nH]c2ccccc2c1=O)N1CCC(C(=O)c2ccc([18F])cc2)CC1", "values": [{"measurement": "Drug uptake", "setting": "[9]", "value": 26, "unit": "%"}]}
{"smiles": "COc1ccccc1N1CCN(CCn2cc(COCC(COc3ccc([Si]([18F])(C(C)(C)C)C(C)(C)C)cc3)OCc3cn(CCN4CCN(c5ccccc5OC)CC4)nn3)nn2)CC1", "note": "(stereo unspecified)", "values": [{"measurement": "Ki", "setting": "D(2) dopamine receptor [10]", "value": 2.2, "unit": "nM"}, {"measurement": "Ki", "setting": "[11]", "value": 9.8, "unit": "nM"}, {"measurement": "Ki", "setting": "[12]", "value": 0.099, "unit": "nM"}]}
{"smiles": "CN(C)CCO/N=C(/C=C/c1ccc(O)cc1)c1ccccc1F", "note": "[EPLIVANSERIN]", "values": [{"measurement": "Kd", "setting": "[13]", "value": 1.2, "unit": "nM"}]}
{"smiles": "O=C(c1ccc([18F])cc1)C1CCN(CCn2c(=S)[nH]c3ccccc3c2=O)CC1", "values": [{"measurement": "Ratio", "setting": "[14]", "value": 11}]}
{"smiles": "O=C(NCCN1CCN(c2cccc3c2OCCO3)CC1)c1ccc([18F])cc1", "values": [{"measurement": "Ratio", "setting": "[15]", "value": 1.7}, {"measurement": "Ratio", "setting": "[16]", "value": 1.7}]}
{"smiles": "CN1CN(c2ccccc2)C2(CCN(CCCC(=O)c3ccc(F)cc3)CC2)C1=O", "note": "[MESPIPERONE]", "values": [{"measurement": "IC50", "setting": "[17]", "value": 10.1, "unit": "nM"}, {"measurement": "Ki", "setting": "[18]", "value": 8.8, "unit": "nM"}, {"measurement": "IC50", "setting": "D(2) dopamine receptor [19]", "value": 0.23, "unit": "nM"}, {"measurement": "IC50", "setting": "[20]", "value": 1.3, "unit": "nM"}, {"measurement": "Ki", "setting": "[21]", "value": 0.5, "unit": "nM"}]}
